Results: patent publication US20060069132A1, “Azolecarboxamide herbicides” (priority 2004, published 2006)

Columns and labels:
giant foxtail = test: Test A pre-/postemergence herbicide test; format: in vivo, Setaria faberi
Method in brief: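 Visual injury scores on a 0–100 scale (100 = complete control) taken about ten days post-treatment in greenhouse against untreated controls; dash means no result. Treatments: preemergence soil spray and postemergence spray to runoff on one- to two-leaf plants 2 to 10 cm tall, surfactant-containing formulation.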

yellow nutsedge = test: Test C pre-/postemergence herbicide test; format: in vivo, Cyperus esculentus; settings: for Nutsedge, Yellow plant response rating: 500 g ai/ha
Method in brief: (§1)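 Visual ratings on a 0–100 scale (100 = complete control) made versus untreated controls after 12 to 14 greenhouse days. Test chemicals, formulated in surfactant-containing non-phytotoxic solvent, applied preemergence to planted seeds or postemergence to 1- to 4-leaf plants (2 to 18 cm).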

eastern black nightshade = test: Test C pre-/postemergence herbicide test; format: in vivo, Solanum ptycanthum; settings: for Plant response rating (0 = no effect, 100 = complete control), Nightshade: 62 g ai/ha; for Plant response rating (0 = no effect, 100 = complete control), Nightshade / Plant response rating, Nightshade: preemergence
Method in brief: as §1

ducksalad = test: Test C flooded paddy test; format: in vivo, Heteranthera limosa; settings: for Plant response rating, Ducksalad: 500 g ai/ha, visual rating after 12 to 14 days
bermudagrass = test: Test C pre-/postemergence herbicide test; format: in vivo, Cynodon dactylon
Method in brief: as §1

cocklebur = test: Test C pre-/postemergence herbicide test; format: in vivo, Xanthium strumarium; settings: for Cocklebur plant response rating: 500 g ai/ha
Method in brief: as §1

[1] = Postemergence, 500 g ai/ha, 0 to 100 scale, 0 no effect, 100 complete control
[2] = Postemergence, 2000 g ai/ha, 0 to 100 scale, 0 no effect, 100 complete control
[3] = Preemergence, 500 g ai/ha, visual rating, 0 to 100 scale (0 no effect, 100 complete control)
[4] = Preemergence, 2000 g ai/ha, visual rating, 0 to 100 scale (0 no effect, 100 complete control)
[5] = 125 g ai/ha, scale 0 (no effect) to 100 (complete control), visual, 12 to 14 days, preemergence
[6] = Postemergence, 250 g ai/ha, scale 0 to 100, 0 no effect, 100 complete control
[7] = Preemergence, scale 0 to 100, 0 no effect, 100 complete control
[8] = postemergence, 125 g ai/ha, scale 0 to 100
[9] = postemergence, 62 g ai/ha, scale 0 to 100
[10] = 125 g ai/ha, scale 0 (no effect) to 100 (complete control), visual, 12 to 14 days
[11] = Preemergence, 500 g ai/ha, scale 0 to 100, 0 no effect, 100 complete control
[12] = 62 g ai/ha, scale 0 to 100 (0 no effect, 100 complete control)
[13] = 125 g ai/ha, scale 0 to 100 (0 no effect, 100 complete control)
[14] = 250 g ai/ha, scale of 0 to 100, 0 is no effect, 100 is complete control
[15] = scale 0 to 100 (0 no effect, 100 complete control)
[16] = 250 g ai/ha, scale 0 to 100 (0 no effect, 100 complete control), visual, 12 to 14 days, preemergence
[17] = 31 g ai/ha, preemergence, scale 0 to 100

In the case of `CCNC(=O)c1cccc(NC(=O)c2cc(C(C)(C)C)nn2CC)n1` [Compound 144], the “Foxtail, Giant plant response rating” value (giant foxtail; [1]) is reported as 80, the “Plant response rating, Foxtail, Giant” value (giant foxtail; [2]) is reported as 100 and the “Foxtail, Giant plant response rating” value (giant foxtail; [3]) is reported as 90. For the same molecule, the “Foxtail, Giant plant response rating” value (giant foxtail; [4]) was 100, the “Plant response rating (0 = no effect, 100 = complete control), Nutsedge, Yellow” value (yellow nutsedge; 62 g ai/ha, preemergence) was 0 and the “Plant response rating, Nutsedge, Yellow” value (yellow nutsedge; [5]) was 0. For the same molecule, the “Nutsedge, Yellow plant response rating” value (yellow nutsedge; Postemergence, scale 0 to 100) was 0, the “Plant response rating, Nutsedge, Yellow” value (yellow nutsedge; [6]) was 0 and the “Nutsedge, Yellow plant response rating” value (yellow nutsedge; [7]) was 40. For the same molecule, the “Plant response rating, Nutsedge, Yellow” value (yellow nutsedge; [8]) was 0, the “Plant response rating, Nutsedge, Yellow” value (yellow nutsedge; [9]) was 0 and the “Plant response rating (0 = no effect, 100 = complete control), Nightshade” value (eastern black nightshade) was 90. The “Plant response rating, Nightshade” value (eastern black nightshade; [10]) was 100, the “Nightshade plant response rating” value (eastern black nightshade; [11]) was 100 and the “Ducksalad plant response rating” value (ducksalad; [12]) was 20. The “Ducksalad plant response rating” value (ducksalad; [13]) was 50, the “Ducksalad plant response rating” value (ducksalad; [14]) was 70 and the “Plant response rating, Ducksalad” value (ducksalad; [15]) was 80. For the same molecule, the “Plant response rating (0 = no effect, 100 = complete control), Bermudagrass” value (bermudagrass; 62 g ai/ha, preemergence) was 70, the “Plant response rating, Bermudagrass” value (bermudagrass; [5]) was 80 and the “Plant response rating, Bermudagrass” value (bermudagrass; [16]) was 80. For the same molecule, the “Bermudagrass plant response rating” value (bermudagrass; [11]) was 90, the “Plant response rating, Bermudagrass” value (bermudagrass; [8]) was 0 and the “Plant response rating, Bermudagrass” value (bermudagrass; [9]) was 0. The “Plant response rating (0 = no effect, 100 = complete control), Cocklebur” value (cocklebur; 62 g ai/ha, preemergence) was 0, the “Plant response rating, Cocklebur” value (cocklebur; [5]) was 0 and the “Plant response rating, Cocklebur” value (cocklebur; [16]) was 0. For the same molecule, the “Cocklebur plant response rating” value (cocklebur; Postemergence, scale 0 to 100) was 70, the “Plant response rating, Cocklebur” value (cocklebur; [6]) was 70 and the “Cocklebur plant response rating” value (cocklebur; [7]) was 80. The “Plant response rating, Cocklebur” value (cocklebur; [8]) was 40 and the “Plant response rating, Cocklebur” value (cocklebur; [9]) was 10.

In the case of `CCOC(=O)c1cc(NC(=O)c2cc(C(C)(C)C)nn2CC)ccc1OCC` [Compound 95], the “Foxtail, Giant plant response rating” value (giant foxtail; [1]) is reported as 20, the “Plant response rating, Foxtail, Giant” value (giant foxtail; [2]) is reported as 50 and the “Foxtail, Giant plant response rating” value (giant foxtail; [3]) is reported as 70. For the same molecule, the “Foxtail, Giant plant response rating” value (giant foxtail; Preemergence, 2000 g ai/ha, 0 to 100 scale, 0 no effect, 100 complete control) was 90, the “Plant response rating, Nutsedge, Yellow” value (yellow nutsedge; [17]) was 0 and the “Plant response rating (0 = no effect, 100 = complete control), Nutsedge, Yellow” value (yellow nutsedge; 62 g ai/ha, preemergence) was 0. For the same molecule, the “Plant response rating, Nutsedge, Yellow” value (yellow nutsedge; [5]) was 0, the “Plant response rating, Nightshade” value (eastern black nightshade; 31 g ai/ha, scale 0 to 100) was 90 and the “Plant response rating (0 = no effect, 100 = complete control), Nightshade” value (eastern black nightshade) was 95. The “Plant response rating, Nightshade” value (eastern black nightshade; [10]) was 95, the “Ducksalad plant response rating” value (ducksalad; [12]) was 10 and the “Ducksalad plant response rating” value (ducksalad; 125 g ai/ha, scale of 0 to 100, 0 is no effect, 100 is complete control) was 25. For the same molecule, the “Ducksalad plant response rating” value (ducksalad; [14]) was 75, the “Plant response rating, Ducksalad” value (ducksalad; [15]) was 90 and the “Plant response rating, Bermudagrass” value (bermudagrass; [17]) was 10. For the same molecule, the “Plant response rating (0 = no effect, 100 = complete control), Bermudagrass” value (bermudagrass; 62 g ai/ha, preemergence) was 70, the “Plant response rating, Bermudagrass” value (bermudagrass; [5]) was 100 and the “Plant response rating, Bermudagrass” value (bermudagrass; [16]) was 100. For the same molecule, the “Plant response rating, Cocklebur” value (cocklebur; [17]) was 0, the “Plant response rating (0 = no effect, 100 = complete control), Cocklebur” value (cocklebur; 62 g ai/ha, preemergence) was 0 and the “Plant response rating, Cocklebur” value (cocklebur; [5]) was 5. For the same molecule, the “Plant response rating, Cocklebur” value (cocklebur; [16]) was 10.

In the case of `CC(=O)c1cccc(NC(=O)c2cc(C(C)(C)C)nn2CCF)c1` [Compound 128], the “Foxtail, Giant plant response rating” value (giant foxtail; [1]) is reported as 45, the “Plant response rating, Foxtail, Giant” value (giant foxtail; [2]) is reported as 60 and the “Foxtail, Giant plant response rating” value (giant foxtail; [3]) is reported as 15. The “Foxtail, Giant plant response rating” value (giant foxtail; [4]) was 65, the “Plant response rating, Nutsedge, Yellow” value (yellow nutsedge; 16 g ai/ha, scale 0 to 100, last section of Table C, preemergence) was 10 and the “Plant response rating, Nutsedge, Yellow” value (yellow nutsedge; 31 g ai/ha, scale 0 to 100, last section of Table C, preemergence) was 70. For the same molecule, the “Plant response rating, Nutsedge, Yellow” value (yellow nutsedge; [5]) was 70, the “Plant response rating (0 = no effect, 100 = complete control), Nightshade” value (eastern black nightshade) was 90 and the “Plant response rating, Nightshade” value (eastern black nightshade; [10]) was 90. The “Ducksalad plant response rating” value (ducksalad; [12]) was 80, the “Ducksalad plant response rating” value (ducksalad; [13]) was 95 and the “Ducksalad plant response rating” value (ducksalad; [14]) was 95. For the same molecule, the “Plant response rating, Ducksalad” value (ducksalad; [15]) was 95, the “Plant response rating, Bermudagrass” value (bermudagrass; 16 g ai/ha, scale 0 to 100, 0 no effect, 100 complete control, last section of Table C (species set of preemergence test)) was 30 and the “Plant response rating, Bermudagrass” value (bermudagrass; 31 g ai/ha, scale 0 to 100, 0 no effect, 100 complete control, last section of Table C (species set of preemergence test)) was 90. The “Plant response rating (0 = no effect, 100 = complete control), Bermudagrass” value (bermudagrass; 62 g ai/ha, preemergence) was 100, the “Plant response rating, Bermudagrass” value (bermudagrass; [5]) was 100 and the “Plant response rating (0 = no effect, 100 = complete control), Cocklebur” value (cocklebur; 62 g ai/ha, preemergence) was 10. The “Plant response rating, Cocklebur” value (cocklebur; [5]) was 10.
